# Reference: ChEMBL document CHEMBL1201862, “PubChem BioAssay data set” (2004)
# Calls of active or inactive are those of the source.
# Assays:
# [1] = biological target: T1, Short transient receptor potential channel 4 (Mus musculus, UniProt Q9QUQ5); assay: block of DAMGO-driven TRPC4 calcium entry – cell-based, HEK293 TRPC4/mu-opioid, Fluo-4 calcium, dose response (AID 434942); type: functional;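 further: potency of inhibitors blocking the TRPC4 calcium response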
# T1 sequence (Q9QUQ5 whole entry): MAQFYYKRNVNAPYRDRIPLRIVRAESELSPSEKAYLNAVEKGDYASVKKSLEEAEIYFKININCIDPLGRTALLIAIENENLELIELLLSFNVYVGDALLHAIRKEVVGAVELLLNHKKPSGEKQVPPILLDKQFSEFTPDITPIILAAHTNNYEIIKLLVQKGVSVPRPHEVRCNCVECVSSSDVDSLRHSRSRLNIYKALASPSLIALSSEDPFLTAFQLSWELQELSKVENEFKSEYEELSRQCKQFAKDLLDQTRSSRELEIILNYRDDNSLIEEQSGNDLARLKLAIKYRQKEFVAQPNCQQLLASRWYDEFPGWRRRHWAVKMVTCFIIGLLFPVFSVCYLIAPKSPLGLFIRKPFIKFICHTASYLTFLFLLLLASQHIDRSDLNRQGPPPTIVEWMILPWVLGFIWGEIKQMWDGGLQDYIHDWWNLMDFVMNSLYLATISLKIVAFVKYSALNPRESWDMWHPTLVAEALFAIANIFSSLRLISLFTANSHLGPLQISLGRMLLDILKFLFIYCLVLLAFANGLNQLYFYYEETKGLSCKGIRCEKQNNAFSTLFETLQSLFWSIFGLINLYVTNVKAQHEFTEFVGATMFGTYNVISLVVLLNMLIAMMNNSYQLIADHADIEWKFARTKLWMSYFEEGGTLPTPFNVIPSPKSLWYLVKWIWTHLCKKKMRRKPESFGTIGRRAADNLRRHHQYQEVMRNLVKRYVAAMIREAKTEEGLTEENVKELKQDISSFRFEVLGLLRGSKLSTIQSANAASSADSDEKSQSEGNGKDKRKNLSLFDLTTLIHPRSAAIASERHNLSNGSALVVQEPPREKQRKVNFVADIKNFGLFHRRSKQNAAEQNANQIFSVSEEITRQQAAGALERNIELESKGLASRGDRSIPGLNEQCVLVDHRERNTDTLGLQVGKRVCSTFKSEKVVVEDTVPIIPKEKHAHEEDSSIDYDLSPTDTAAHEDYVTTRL
# Melanocortin receptor 4 = Melanocortin receptor 4 (Homo sapiens, UniProt P32245); assay: inhibitors of MC4R cAMP signaling – cell-based, TR-FRET, biased antagonists, dose response (AID 602298); type: functional;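 further: antagonist potency against agonist-stimulated cAMP production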
# Sequence of Melanocortin receptor 4 (P32245 whole entry): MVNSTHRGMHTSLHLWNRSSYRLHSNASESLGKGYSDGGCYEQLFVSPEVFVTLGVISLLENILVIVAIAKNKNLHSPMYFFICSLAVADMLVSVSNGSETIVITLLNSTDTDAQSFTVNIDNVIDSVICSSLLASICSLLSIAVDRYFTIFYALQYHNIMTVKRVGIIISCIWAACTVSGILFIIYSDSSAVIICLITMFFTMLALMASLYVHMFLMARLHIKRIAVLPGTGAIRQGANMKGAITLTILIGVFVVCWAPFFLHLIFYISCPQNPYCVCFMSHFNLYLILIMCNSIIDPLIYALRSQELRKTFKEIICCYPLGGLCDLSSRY
# [2] = cAMP pathway inhibition in counterscreen cell line – TR-FRET cAMP detection, counter-screen for MC4R biased antagonist project, dose response (AID 602305); type: functional, cell-based;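 further: U2OS cells stimulated with forskolin near its EC80 as the cAMP inducer; potency is for inhibition of forskolin-stimulated cAMP signaling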
# [3] = biological target: Peroxisome proliferator-activated receptor gamma/Nuclear receptor coactivator 2 (Homo sapiens, UniProt P37231); assay: (§1) TR-FRET dose response biochemical High Throughput Screening assay for agonists of the steroid receptor coactivator 2 (SRC-2) recruitment by the peroxisome proliferator-activated receptor gamma (PPAR gamma): non-selective agonists. [Related pubchem assays: 1297, 1032 ]; type: functional
# [4] = biological target: Peroxisome proliferator-activated receptor gamma/Nuclear receptor coactivator 1 (Homo sapiens, UniProt P37231); assay: as §1, with “1 (SRC-1)” for “2 (SRC-2)”, “assays (depositor defined):AID1300, AID1808, AID504735, AID631]” for “assays: 1297, 1032 ]”; type: protein assay
# Sequence of Peroxisome proliferator-activated receptor gamma/Nuclear receptor coactivator 1 (P37231 whole entry): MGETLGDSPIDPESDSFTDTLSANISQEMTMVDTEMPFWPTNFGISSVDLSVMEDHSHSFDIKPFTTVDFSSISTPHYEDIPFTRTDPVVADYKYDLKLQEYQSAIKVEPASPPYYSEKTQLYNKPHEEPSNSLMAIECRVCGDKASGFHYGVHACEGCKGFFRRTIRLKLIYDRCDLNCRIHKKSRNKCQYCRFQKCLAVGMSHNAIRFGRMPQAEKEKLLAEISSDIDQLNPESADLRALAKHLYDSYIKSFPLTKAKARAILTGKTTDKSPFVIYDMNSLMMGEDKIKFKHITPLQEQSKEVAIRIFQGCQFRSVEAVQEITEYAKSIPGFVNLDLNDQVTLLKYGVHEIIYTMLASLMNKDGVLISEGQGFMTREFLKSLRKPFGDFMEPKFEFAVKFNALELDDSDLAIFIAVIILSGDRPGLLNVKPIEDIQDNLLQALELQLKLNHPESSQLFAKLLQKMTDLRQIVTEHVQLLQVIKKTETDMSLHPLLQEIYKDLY
# Sequence of Peroxisome proliferator-activated receptor gamma/Nuclear receptor coactivator 1 (Q15788 whole entry, further chain): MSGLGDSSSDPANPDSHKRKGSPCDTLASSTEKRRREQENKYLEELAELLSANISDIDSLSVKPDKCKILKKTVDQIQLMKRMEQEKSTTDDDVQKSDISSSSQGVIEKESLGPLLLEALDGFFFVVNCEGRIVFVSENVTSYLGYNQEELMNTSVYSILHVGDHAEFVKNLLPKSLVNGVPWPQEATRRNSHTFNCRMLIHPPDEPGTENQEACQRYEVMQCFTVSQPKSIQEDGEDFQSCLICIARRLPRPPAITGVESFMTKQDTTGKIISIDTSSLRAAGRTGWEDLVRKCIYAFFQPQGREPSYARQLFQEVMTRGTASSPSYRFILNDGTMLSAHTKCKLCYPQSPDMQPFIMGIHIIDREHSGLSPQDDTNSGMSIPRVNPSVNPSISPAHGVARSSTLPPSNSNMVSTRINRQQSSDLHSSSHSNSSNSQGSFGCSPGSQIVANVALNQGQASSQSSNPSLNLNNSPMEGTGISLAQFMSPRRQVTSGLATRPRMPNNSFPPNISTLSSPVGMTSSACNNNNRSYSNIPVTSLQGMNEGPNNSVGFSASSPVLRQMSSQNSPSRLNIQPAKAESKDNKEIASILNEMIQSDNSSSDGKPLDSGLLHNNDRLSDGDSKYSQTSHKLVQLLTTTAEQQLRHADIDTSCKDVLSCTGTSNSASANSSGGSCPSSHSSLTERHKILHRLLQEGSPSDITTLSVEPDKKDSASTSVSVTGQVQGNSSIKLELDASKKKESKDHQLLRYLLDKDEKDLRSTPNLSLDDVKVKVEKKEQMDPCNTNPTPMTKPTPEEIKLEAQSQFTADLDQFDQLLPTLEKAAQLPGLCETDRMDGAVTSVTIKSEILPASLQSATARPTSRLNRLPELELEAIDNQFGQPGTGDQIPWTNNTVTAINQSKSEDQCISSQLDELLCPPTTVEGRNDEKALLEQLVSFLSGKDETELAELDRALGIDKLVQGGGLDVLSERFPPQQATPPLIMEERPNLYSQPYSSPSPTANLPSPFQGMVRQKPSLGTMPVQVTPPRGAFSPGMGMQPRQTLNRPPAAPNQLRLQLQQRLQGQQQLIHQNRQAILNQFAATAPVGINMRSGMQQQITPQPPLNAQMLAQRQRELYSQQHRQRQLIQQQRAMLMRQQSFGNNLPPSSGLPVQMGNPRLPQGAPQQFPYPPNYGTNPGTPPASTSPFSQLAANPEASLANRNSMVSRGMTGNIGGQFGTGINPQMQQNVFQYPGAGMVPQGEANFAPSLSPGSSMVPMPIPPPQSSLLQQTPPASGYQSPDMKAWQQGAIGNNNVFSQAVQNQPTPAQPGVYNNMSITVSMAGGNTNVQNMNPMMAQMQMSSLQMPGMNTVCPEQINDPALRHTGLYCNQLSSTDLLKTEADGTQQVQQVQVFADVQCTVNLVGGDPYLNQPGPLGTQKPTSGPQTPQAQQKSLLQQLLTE
# [5] = biological target: Peroxisome proliferator-activated receptor gamma/Nuclear receptor coactivator 3 (Homo sapiens, UniProt P37231); assay: as §1, with “3 (SRC-3)” for “2 (SRC-2)”, “1301 (Confirmation screen.), 1048 (Primary screen.)]” for “1297, 1032 ]”; type: functional
# Sequence of Peroxisome proliferator-activated receptor gamma/Nuclear receptor coactivator 3 (P37231 whole entry): as the sequence (P37231 whole entry) above
# Sequence of Peroxisome proliferator-activated receptor gamma/Nuclear receptor coactivator 3 (Q9Y6Q9 whole entry, further chain): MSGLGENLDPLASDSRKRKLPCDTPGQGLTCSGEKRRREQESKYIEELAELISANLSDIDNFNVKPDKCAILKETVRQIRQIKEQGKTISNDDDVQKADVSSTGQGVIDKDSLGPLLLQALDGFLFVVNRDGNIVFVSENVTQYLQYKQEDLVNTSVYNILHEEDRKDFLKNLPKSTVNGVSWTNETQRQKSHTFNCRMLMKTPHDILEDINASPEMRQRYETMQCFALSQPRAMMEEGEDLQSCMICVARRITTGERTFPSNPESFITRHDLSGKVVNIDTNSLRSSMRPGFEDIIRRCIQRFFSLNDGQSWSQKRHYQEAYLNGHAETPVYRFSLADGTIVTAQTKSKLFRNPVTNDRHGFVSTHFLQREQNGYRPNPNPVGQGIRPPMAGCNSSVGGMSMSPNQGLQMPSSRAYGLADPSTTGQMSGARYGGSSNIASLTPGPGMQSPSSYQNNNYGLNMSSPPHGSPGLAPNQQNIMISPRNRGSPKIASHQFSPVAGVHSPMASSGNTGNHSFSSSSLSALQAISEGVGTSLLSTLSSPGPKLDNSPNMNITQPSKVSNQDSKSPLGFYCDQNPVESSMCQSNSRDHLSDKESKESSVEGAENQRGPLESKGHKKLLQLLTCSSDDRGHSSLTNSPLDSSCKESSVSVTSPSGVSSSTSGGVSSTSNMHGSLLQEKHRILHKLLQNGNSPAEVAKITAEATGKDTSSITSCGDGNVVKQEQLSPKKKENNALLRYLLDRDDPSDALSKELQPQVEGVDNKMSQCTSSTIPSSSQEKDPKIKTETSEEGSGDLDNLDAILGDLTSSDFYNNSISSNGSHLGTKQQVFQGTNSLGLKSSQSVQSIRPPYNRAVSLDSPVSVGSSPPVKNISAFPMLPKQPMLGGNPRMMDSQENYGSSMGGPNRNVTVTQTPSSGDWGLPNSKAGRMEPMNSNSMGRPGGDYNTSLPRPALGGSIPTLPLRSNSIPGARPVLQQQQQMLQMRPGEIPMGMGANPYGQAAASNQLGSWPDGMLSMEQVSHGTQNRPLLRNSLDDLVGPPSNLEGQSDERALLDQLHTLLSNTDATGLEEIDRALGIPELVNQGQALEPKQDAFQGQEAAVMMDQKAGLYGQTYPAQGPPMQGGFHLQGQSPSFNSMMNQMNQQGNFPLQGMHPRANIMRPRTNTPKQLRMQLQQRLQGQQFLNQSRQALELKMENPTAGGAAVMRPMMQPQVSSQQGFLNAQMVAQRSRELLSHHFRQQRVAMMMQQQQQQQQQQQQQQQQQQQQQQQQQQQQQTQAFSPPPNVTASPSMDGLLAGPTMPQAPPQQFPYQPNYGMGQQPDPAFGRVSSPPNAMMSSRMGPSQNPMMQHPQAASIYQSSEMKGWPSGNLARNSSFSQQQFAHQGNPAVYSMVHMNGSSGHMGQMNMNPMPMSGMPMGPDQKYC
# [6] = fluconazole-exposed Candida albicans growth modulators – fluorescence, retest, confirmation (AID 2467); type: functional, cell-based
# [7] = NIH-3T3 fibroblast cytotoxicity, dose response, cytotoxicity control, cell-based, fluorescence, Alamar Blue, secondary assay (AID 2327); type: functional;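 further: NIH-3T3 mouse fibroblasts cultured with fluconazole at 8 µg/mL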
# BJ [8] = assay: BJ-TERT-LT-ST fibroblast viability loss – cell-based, RAS-independent, luminescence, dose response (AID 1935); type: functional; conditions: Homo sapiens;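 further: BJ fibroblasts immortalized with TERT plus LT and ST oncogenes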
# [9] = Luminescence Cell-Based Dose Response HTS to Identify Inhibitors of 5'UTR Stem-Loop Driven Prion Protein mRNA Translation in H4 Neuroglioblastoma Cells. [Related pubchem assays: 1827 (Project Summary), 1813 (Primary HTS)]; type: functional
# BJ [10] = assay: BJ-TERT fibroblast viability loss – cell-based, RAS-independent, luminescence, dose response (AID 1933); type: functional; conditions: Homo sapiens
# [11] = DRD fibroblast viability loss – cell-based, non-viral oncogenic, luminescence, dose response (AID 1934); type: functional; conditions: Homo sapiens
# BJ [12] = assay: cells; type: functional, cell-based; conditions: Homo sapiens
# [13] = luciferase reporter signal suppression in cells – H4 neuroglioma cells, luminescence, dose response (AID 1990); type: functional, cell-based
# [14] = alpha-synuclein stem-loop luciferase translation blockers – H4 neuroglioma cells, luminescence, confirmation (AID 1988); type: functional, cell-based
# [15] = HEK-293T viability loss after treatment – luminescence, T-cell screen hits, cytotoxicity control for TCR NF-kB inhibitor project, dose response (AID 489026); type: functional, cell-based;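 further: cells exposed to compound about 14 hours before the viability readout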
# [16] = biological target: T1, Short transient receptor potential channel 4; assay: calcium entry via TRPC4 opening agents – cell-based, HEK293 TRPC4/mu-opioid, Fluo-4 calcium, dose response (AID 434937); type: functional
smiles,measurement,setting,value
CCCc1cc(O)nc(SCC(=O)Nc2sc3c(c2C#N)CCCC3)n1,EC50,[1],4.73 µM (active)
O=C(COC(=O)C(Cc1ccccc1)NC(=O)c1cccs1)NCc1ccccc1 (stereo not given),IC50,Melanocortin receptor 4,38.6 µM (inactive)
same,IC50,[2],> 64.6 µM (inactive)
O=C(Nc1nccs1)c1cc(S(=O)(=O)N2CCOCC2)c(Cl)cc1Cl,IC50,Melanocortin receptor 4,> 64.6 µM (inactive)
same,IC50,[2],> 64.6 µM (inactive)
COc1cc(-n2c(=S)[nH]c3ccc(C)cc3c2=O)c(Cl)cc1Cl,EC50,[3],> 79.4 µM (not active)
same,EC50,[4],> 79.4 µM (inactive)
same,EC50,[5],> 79.4 µM (not active)
Cn1c(=S)[nH]c2scc(-c3cccs3)c2c1=O,EC50,[3],11.4 µM (not active)
same,EC50,[4],10.5 µM (inactive)
same,EC50,[6],0.361 µM (active)
same,EC50,[5],> 79.4 µM (not active)
same,EC50,[7],145 µM (inconclusive)
COc1ccc(OC)c(Nc2cc(C)nc3ccc(C)cc23)c1,EC50,[1],5.96 µM (active)
same,EC50,BJ [8],18.8 µM (active)
same,EC50,[9],44.2 µM (active)
same,EC50,BJ [10],11.7 µM (active)
same,EC50,[11],9.69 µM (active)
same,EC50,BJ [12],12.3 µM (active)
same,EC50,[13],> 120 µM (not active)
same,EC50,[14],6.31 µM (active)
CCOC(=O)C(C)Sc1nc2c(c(=O)[nH]c(=O)n2C)n1Cc1ccc(Cl)cc1 (stereo not given),EC50,[1],0.749 µM (active)
Cc1cc(-c2ccc(C(C)C)c(S(=O)(=O)N3CCN(c4ccccc4)CC3)c2)on1,IC50,[15],> 80 µM (inactive)
COc1ccc2nc(NS(=O)(=O)c3ccc(NC(C)=O)cc3)sc2c1,EC50,[1],3.35 µM (active)
same,EC50,[16],3.76 µM (active)
